Read-outs that look alike come from different tables or passages of the source. *1 amine or outer side, *2 acyl side, *3 side chain or, on linkers, in order; H or OH if unused. Where a SMILES comes first, the peptide text is derived from it. Side-chain parts run from the residue outwards. [ ]: non-standard residue; d: D form. The star is where a group is joined. C18 diacid = O=C(O)CCCCCCCCCCCCCCCCC(=O)*; γGlu = O=C(O)[C@H](CCC(=O)[*:2])N[*:1]; AEEA = NCCOCCOCC(=O)O; Aib = CC(C)(N)C(=O)O

One assay has as its target T1, mGLP-1R (Mus musculus, UniProt O35659).
T1 construct: expressed in transfected cells; host or cells: HEK293
T1 sequence (O35659 22-463): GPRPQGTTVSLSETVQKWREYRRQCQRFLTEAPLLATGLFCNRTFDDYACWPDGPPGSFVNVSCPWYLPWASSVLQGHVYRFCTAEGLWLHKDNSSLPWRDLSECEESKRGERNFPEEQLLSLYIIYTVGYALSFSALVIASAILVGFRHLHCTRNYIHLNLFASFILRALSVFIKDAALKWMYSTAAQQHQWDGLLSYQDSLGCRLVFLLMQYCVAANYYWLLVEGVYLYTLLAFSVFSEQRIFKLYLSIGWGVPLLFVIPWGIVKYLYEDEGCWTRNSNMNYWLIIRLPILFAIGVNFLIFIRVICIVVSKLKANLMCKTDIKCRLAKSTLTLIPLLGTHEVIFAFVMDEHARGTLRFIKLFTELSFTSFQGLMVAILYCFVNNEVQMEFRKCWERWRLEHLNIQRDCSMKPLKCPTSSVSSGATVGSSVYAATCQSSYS
The assay can be described thus: GLP-1R agonist activity, cAMP in transfected HEK293 cells. In kind it is cell-based.

A further assay has as its system ob/ob mice. The assay can be described thus: Blood glucose reducing experiment, single subcutaneous injection in ob/ob mice.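 As to all read-outs here: random blood glucose read at each time point, decrease rate given as percentage fall versus the model control group.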 In kind it is in vivo. Conditions: 100 μg/kg single s.c.; for Blood glucose at different time after administration, 0 h: 0 h (before administration); for Blood glucose at different time after administration, 0 h / Blood glucose at different time after administration, 2 h / Blood glucose at different time after administration, 4 h / Blood glucose at different time after administration, 6 h / Blood glucose at different time after administration, 10 h / Blood glucose at different time after administration, 24 h / Blood glucose at different time after administration, 34 h / AUC0-24 h Glu: X ± s, n = 7; for AUC0-24 h Glu: blood glucose curve area within 24 h; for AUC0-24 h Glu Decrease rate: versus model control group.

For a further assay, the target named is T2, mGIPR (Mus musculus, UniProt Q0P543).
T2 construct: expressed in transfected cells; host or cells: HEK293
T2 sequence (Q0P543 19-460): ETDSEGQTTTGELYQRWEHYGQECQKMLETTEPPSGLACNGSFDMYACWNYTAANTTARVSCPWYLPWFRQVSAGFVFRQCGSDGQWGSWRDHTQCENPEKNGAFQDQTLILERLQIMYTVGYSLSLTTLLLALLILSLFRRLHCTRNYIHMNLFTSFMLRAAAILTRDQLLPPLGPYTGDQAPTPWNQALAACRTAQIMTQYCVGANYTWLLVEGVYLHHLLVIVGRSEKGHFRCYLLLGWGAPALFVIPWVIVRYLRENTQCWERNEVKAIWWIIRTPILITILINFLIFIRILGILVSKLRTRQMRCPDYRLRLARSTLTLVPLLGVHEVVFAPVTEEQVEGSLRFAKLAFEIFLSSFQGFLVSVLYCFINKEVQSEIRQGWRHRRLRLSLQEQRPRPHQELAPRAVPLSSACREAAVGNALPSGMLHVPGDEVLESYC
The assay can be described thus: GIPR agonist activity, cAMP in transfected HEK293 cells. In kind it is cell-based.

The nature of assay [1]: Effect on random weight of ob/ob mice after single subcutaneous injection. In kind it is in vivo. As to conditions: 100 μg/kg single s.c., X ± s, n = 7.
Where [2] appears, read: HEK293 cells transfected with GLP-1R, cAMP, 20 min incubation, read-out: mGLP-1R EC50.
[3] abbreviates: HEK293 cells transfected with GIPR, cAMP, 20 min incubation, read-out: mGIPR EC50.

Protocol for mGIPR: HEK293 cells were co-transfected with cDNA encoding GLP-1R or GIPR. In a test for determining the compound, the cells were inoculated in a 96-well plate 2 h in advance, the polypeptide compound was dissolved with DMSO, and diluted to different multiples with a culture medium containing 0.1% bovine serum albumin and added to the co-transfected cells.
Protocol for mGLP-1R: HEK293 cells were co-transfected with cDNA encoding GLP-1R or GIPR. In a test for determining the compound, the cells were inoculated in a 96-well plate 2 h in advance, the polypeptide compound was dissolved with DMSO, and diluted to different multiples with a culture medium containing 0.1% bovine serum albumin and added to the co-transfected cells. After the cells were incubated for 20 min, fluorescence values were determined through microplate reader of an ELISA kit of the Cisbo Company, a standard curve was established to convert the fluorescence values into corresponding cAMP values, and the EC50 value of the compound was calculated through nonlinear regression of Graphpad Prism 5.0 software.

One may read the EC50 as the midpoint of the concentration-response curve. `CC[C@H](C)[C@H](NC(=O)[C@H](CCCCN)NC(=O)[C@H](CC(=O)O)NC(=O)[C@H](CC(C)C)NC(=O)[C@H](C)NC(=O)[C@@H](NC(=O)[C@H](CO)NC(=O)[C@H](Cc1ccc(O)cc1)NC(=O)[C@H](CC(=O)O)NC(=O)[C@H](CO)NC(=O)[C@@H](NC(=O)[C@H](Cc1ccccc1)NC(=O)[C@@H](NC(=O)CNC(=O)[C@H](CCC(=O)O)NC(=O)[C@H](C)NC(=O)[C@@H](N)Cc1ccc(O)cc1)[C@@H](C)O)[C@@H](C)O)[C@@H](C)CC)C(=O)N[C@@H](C)C(=O)N[C@@H](CCC(N)=O)C(=O)N[C@@H](CCCCNC(=O)COCCOCCNC(=O)COCCOCCNC(=O)CC[C@H](NC(=O)CCCCCCCCCCCCCCCCC(=O)O)C(=O)O)C(=O)N[C@@H](C)C(=O)N[C@@H](Cc1ccccc1)C(=O)N[C@H](C(=O)N[C@@H](CCC(N)=O)C(=O)N[C@@H](Cc1c[nH]c2ccccc12)C(=O)N[C@@H](CC(C)C)C(=O)N[C@H](C(=O)N[C@@H](C)C(=O)NCC(=O)NCC(=O)N1CCC[C@H]1C(=O)N[C@@H](CO)C(=O)N[C@@H](CO)C(=O)NCC(=O)N[C@@H](C)C(=O)N1CCC[C@H]1C(=O)N1CCC[C@H]1C(=O)N1CCC[C@H]1C(=O)N[C@@H](CO)C(N)=O)[C@@H](C)CC)C(C)C` [ID NO: 4] returned an EC50 on mGLP-1R of 1.49 pM. Also, in the assay on ob/ob mice, the “Blood glucose at different time after administration, 0 h” value is 20.43 ± 0.68 mmol/L; the “Decrease rate of blood glucose at different time after administration, 2 h” value came to 50.0%; the “Blood glucose at different time after administration, 2 h” value was determined as 10.21 ± 1.06 mmol/L; the “Decrease rate of blood glucose at different time after administration, 4 h” value worked out at 51.6%. In the assay with ob/ob mice, the “Blood glucose at different time after administration, 4 h” value is given as 9.89 ± 0.83 mmol/L; the “Decrease rate of blood glucose at different time after administration, 6 h” value was determined as 52.9%; the “Blood glucose at different time after administration, 6 h” value is 9.63 ± 0.95 mmol/L; the “Decrease rate of blood glucose at different time after administration, 10 h” value is recorded as 51.7%. Further, in the assay on ob/ob mice, the “Blood glucose at different time after administration, 10 h” value was determined as 9.86 ± 0.96 mmol/L; the “Decrease rate of blood glucose at different time after administration, 24 h” value amounted to 46.1%; the “Blood glucose at different time after administration, 24 h” value worked out at 11.01 ± 0.83 mmol/L; the “Decrease rate of blood glucose at different time after administration, 34 h” value is reported as 28.7%. Further, in the assay with ob/ob mice, the “Blood glucose at different time after administration, 34 h” value was 14.56 ± 1.42 mmol/L; the “Decrease rate of blood glucose at different time after administration, 48 h” value was found to be 15.2%; the “AUC0-24 h Glu” value worked out at 255.33 ± 20.13 mmol·h/L; the “AUC0-24 h Glu Decrease rate” value worked out at 50.0%. Besides, the concentration giving a half-maximal response (EC50) on mGIPR came out at 5.21 pM. Also, in assay [1], the “Changes of random body weight at different time after administration, 0 h” value was found to be 0.0 ± 0.0 g; the “Random body weight at different time after administration, 0 h” value stood at 43.6 ± 1.0 g; the “Changes of random body weight at different time after administration, 24 h” value was -1.4 ± 0.2 g; the “Random body weight at different time after administration, 24 h” value was determined as 42.2 ± 1.0 g. Further, in assay [1], the “Changes of random body weight at different time after administration, 48 h” value was -0.6 ± 0.1 g and the “Random body weight at different time after administration, 48 h” value was determined as 42.9 ± 1.1 g.
For the molecule `CC[C@H](C)[C@H](NC(=O)[C@H](CC(C)C)NC(=O)[C@H](Cc1c[nH]c2ccccc12)NC(=O)[C@H](CCC(N)=O)NC(=O)[C@@H](NC(=O)[C@H](Cc1ccccc1)NC(=O)[C@H](C)NC(=O)[C@H](CCCCNC(=O)COCCOCCNC(=O)COCCOCCNC(=O)CC[C@H](NC(=O)CCCCCCCCCCCCCCCCC(=O)O)C(=O)O)NC(=O)[C@H](CCC(N)=O)NC(=O)[C@H](C)NC(=O)[C@@H](NC(=O)[C@H](CCCCN)NC(=O)[C@H](CC(=O)O)NC(=O)[C@H](CC(C)C)NC(=O)C(C)(C)NC(=O)[C@@H](NC(=O)[C@H](CO)NC(=O)[C@H](Cc1ccc(O)cc1)NC(=O)[C@H](CC(=O)O)NC(=O)[C@H](CO)NC(=O)[C@@H](NC(=O)[C@H](Cc1ccccc1)NC(=O)[C@@H](NC(=O)CNC(=O)[C@H](CCC(=O)O)NC(=O)[C@H](C)NC(=O)[C@@H](N)Cc1ccc(O)cc1)[C@@H](C)O)[C@@H](C)O)[C@@H](C)CC)[C@@H](C)CC)C(C)C)C(=O)N[C@@H](C)C(=O)NCC(=O)NCC(=O)N1CCC[C@H]1C(=O)N[C@@H](CO)C(=O)N[C@@H](CO)C(=O)NCC(=O)N[C@@H](C)C(=O)N1CCC[C@H]1C(=O)N1CCC[C@H]1C(=O)N1CCC[C@H]1C(=O)N[C@@H](CO)C(N)=O` [ID NO: 5] (H-YAEGTFTSDYSI[Aib]LDKIAQK([AEEA-AEEA-γGlu-C18 diacid])AFVQWLIAGGPSSGAPPPS-NH2), on mGLP-1R (setting [2]), the EC50 was 2.99 pM. Besides, in the assay on ob/ob mice, the “Blood glucose at different time after administration, 0 h” value worked out at 20.57 ± 0.84 mmol/L; the “Decrease rate of blood glucose at different time after administration, 2 h” value is on record as 50.8%; the “Blood glucose at different time after administration, 2 h” value amounted to 10.12 ± 1.20 mmol/L; the “Decrease rate of blood glucose at different time after administration, 4 h” value turned out to be 53.6%. Moreover, in the assay with ob/ob mice, the “Blood glucose at different time after administration, 4 h” value is reported as 9.54 ± 0.84 mmol/L; the “Decrease rate of blood glucose at different time after administration, 6 h” value is 54.2%; the “Blood glucose at different time after administration, 6 h” value is 9.43 ± 0.86 mmol/L; the “Decrease rate of blood glucose at different time after administration, 10 h” value turned out to be 52.6%. Besides, in the assay with ob/ob mice, the “Blood glucose at different time after administration, 10 h” value was found to be 9.76 ± 0.96 mmol/L; the “Decrease rate of blood glucose at different time after administration, 24 h” value is on record as 47.1%; the “Blood glucose at different time after administration, 24 h” value amounted to 10.89 ± 1.43 mmol/L; the “Decrease rate of blood glucose at different time after administration, 34 h” value came to 35.2%. Besides, in the assay on ob/ob mice, the “Blood glucose at different time after administration, 34 h” value stood at 13.33 ± 2.10 mmol/L; the “Decrease rate of blood glucose at different time after administration, 48 h” value was 15.8%; the “AUC0-24 h Glu” value was 252.25 ± 19.68 mmol·h/L; the “AUC0-24 h Glu Decrease rate” value amounted to 50.6%. The EC50 at mGIPR (setting [3]) came to 6.4 pM. In addition, in assay [1], the “Changes of random body weight at different time after administration, 0 h” value was determined as 0.0 ± 0.0 g; the “Random body weight at different time after administration, 0 h” value is given as 43.5 ± 0.9 g; the “Changes of random body weight at different time after administration, 24 h” value was -1.4 ± 0.2 g; the “Random body weight at different time after administration, 24 h” value was 42.0 ± 0.9 g. In addition, in assay [1], the “Changes of random body weight at different time after administration, 48 h” value is -0.6 ± 0.2 g and the “Random body weight at different time after administration, 48 h” value is 42.9 ± 0.9 g.
Consider `CCCCCCCCCCCCCCCC(=O)N[C@@H](CCC(=O)NCCCC[C@H](NC(=O)[C@H](CCC(N)=O)NC(=O)[C@H](C)NC(=O)[C@@H](NC(=O)[C@H](CCCCN)NC(=O)[C@H](CC(=O)O)NC(=O)[C@H](CC(C)C)NC(=O)C1(NC(=O)[C@@H](NC(=O)[C@H](CO)NC(=O)[C@H](Cc2ccc(O)cc2)NC(=O)[C@H](CC(=O)O)NC(=O)[C@H](CO)NC(=O)[C@@H](NC(=O)[C@H](Cc2ccccc2)NC(=O)[C@@H](NC(=O)CNC(=O)[C@H](CCC(=O)O)NC(=O)C(C)(C)NC(=O)[C@@H](N)Cc2ccc(O)cc2)[C@@H](C)O)[C@@H](C)O)[C@@H](C)CC)CCCC1)[C@@H](C)CC)C(=O)N[C@@H](C)C(=O)N[C@@H](Cc1ccccc1)C(=O)N[C@H](C(=O)N[C@@H](CCC(N)=O)C(=O)N[C@@H](Cc1c[nH]c2ccccc12)C(=O)N[C@@H](CC(C)C)C(=O)N[C@H](C(=O)N[C@@H](C)C(=O)NCC(=O)NCC(=O)N1CCC[C@H]1C(=O)N[C@@H](CO)C(=O)N[C@@H](CO)C(=O)NCC(=O)N[C@@H](C)C(=O)N1CCC[C@H]1C(=O)N1CCC[C@H]1C(=O)N1CCC[C@H]1C(=O)N[C@@H](CO)C(N)=O)[C@@H](C)CC)C(C)C)C(=O)O` [ID NO: 21], for which the 50% effective concentration (EC50) on mGLP-1R (setting [2]) was determined as 17.8 pM; at mGIPR (setting [3]), 8.07 pM.

The values above are taken from patent publication US20220251163A1 (Sinopep-Allsino Biopharmaceutical Co., Ltd., priority 2019, published 2022).
